US5369096A, “Glycolipid derivatives” (The Nisshin Oil Mills, Ltd., priority 1992, dated 1994)

Tests used:
[1] = test system: HL-60 cancer cells adhering to vascular endothelial cells of the normal human umbilical cord; test: inhibition of adhesion of HL-60 cancer cells to rhIL1β-stimulated vascular endothelial cells, oily emulsion; assay type: cell-based; conditions: 20 μg/ml equivalent; for Amount of HL-60 cancer cells adhered (fluorescence intensity): rhIL1β 200 U/ml, 485 nm/535 nm
Procedure: A mixed solution of 6 mg of egg yolk lecithin (manufactured by Nacalaitesque Inc.), 30 μl of soybean oil J. P. (manufactured by Yoshida Seiyaku), 470 μl of distilled water for injection (manufacturedby Otsuka Seiyaku) and 125 μg of a compound of the invention was ultrasonicated (an output of 90 watts) for 10 min. to prepare an oily emulsion. The oily emulsion was further passed through a polycarbonate membrane filter having 0.2 μm average pore diameter (manufactured by Millipore) to provide an average particle size of 0.2 μm.
(§1) Vascular endothelial cells of the normal human umbilical cord grown to confluence were stimulated in 24-well plates with 200 U/ml of rhIL1β at 37° C. for 4 hours. After removal of the supernatant by suction, oily emulsions each prepared from a compound of the invention in an amount of 20 μg/ml equivalent were added except for the rhIL1β-untreated group (sample 1) and the treated groups (samples 2 and 3). The mixtures were then allowed to react at room temperature for 30 min. Subsequently, promyelocytic leukemia cell line HL-60 with 2',7'-bis(carboxyethyl)-5,6-carboxyfluorescene acetoxymethyl ester fluorescent dye enclosed was added at a level of 1×10^6 cells per well followed by centrifugal operation at 100 rpm for 20 min. Each well was washed three times followed by addition of 0.5 ml of 0.5% Triton X-100 and stirring. The contents were divided into 100 μl portions in 96-well plates and measurement was made on a Baxter fluorometer at 485 nm/535 nm.
4: rhIL1β-treated group+2→3 sialyl Lewis X (natural type)-containing oily emulsion dispersion-treated group
5: rhlL1β-treated group+compound 5E-containing oily emulsion dispersion-treated group (OEG)
6: rhIL1β-treated group+compound 5A-containing oily emulsion dispersion-treated group (2EG)
7: rhIL1β-treated group+compound 5B-containing oily emulsion dispersion-treated group (3EG)
8: rhIL1β-treated group+compound 5C-containing oily emulsion dispersion-treated group (4EG)
9: rhIL1β-treated group+compound 5D-containing oily emulsion dispersion-treated group (5EG)
% inhibition of adhesion=100-[(fluorescence intensity for rhIL1β-treated group+compound-free or a compound-containing oily emulsion dispersion-treated group)-(fluorescence intensity for rhIL1β-untreated group)/(fluorescence intensity for rhIL1β-treated group-fluorescence intensity for rhIL1β-untreatedgroup)]×100

[2] = test system: human normal lymphocytes adhering to vascular endothelial cells of the normal human umbilical cord; test: inhibition of adhesion of human normal lymphocytes to rhIL1β-stimulated vascular endothelial cells, liposome dispersion; assay type: cell-based; conditions: 20 μg/ml equivalent; for Amount of human normal lymphocytes adhered (fluorescence intensity): rhIL1β 200 U/ml, 485 nm/535 nm
Procedure: A solution of 200 μg of phosphatidylcholine, 100 μg of cholesterol, 7.5 μg of dicetyl phosphate and 50 μg of a compound of the invention in a mixture of chloroform/methanol=2/1 (ca. 1 ml) was evaporated under reduced pressure to dryness followed by addition of 0.25 ml of a phosphate-buffered saline solution. The mixture was ultrasonicated (an output of 90 watts) for 5 min. and stirred (a vortex mixer) for 5 min. to form a liposome dispersion.
as §1, with “suction, liposome dispersions” for “suction, oily emulsions”, “Subsequently, human normal lymphocytes” for “Subsequently, promyelocytic leukemia cell line HL-60”, “with 2',7'-bis-(carboxyethyl)-5,6-carboxyfluorescene” for “with 2',7'-bis(carboxyethyl)-5,6-carboxyfluorescene”, “of 2×10^6” for “of 1×10^6”, “Each hole” for “Each well”
4: rhIL1β-treated group+compound 5A-containing liposome dispersion-treated group (2EG)
5: rhIL1β-treated group+compound 5B-containing liposome dispersion-treated group (3EG)
6: rhIL1β-treated group+compound 5C-containing liposome dispersion-treated group (4EG)
7: rhIL1β-treated group+compound 5D-containing liposome dispersion-treated group (5EG)
Amount adhered and % inhibition of adhesion of human normal lymphocytes as measured from fluorescence intensity are shown in Table 4 below.

SMILES	Amount of HL-60 cancer cells adhered (fluorescence intensity) [1]	Amount of human normal lymphocytes adhered (fluorescence intensity) [2]	% Inhibition of adhesion ([1]; HL-60 cells) [%]	% Inhibition of adhesion ([2]; human normal lymphocytes) [%]
CCCCCCCCCCCCCCC(CCCCCCCCCCCCCC)C(=O)Nc1ccc(COCCOCCOCCO[C@@H]2O[C@H](CO)[C@@H](O[C@@H]3O[C@H](CO)[C@H](O)[C@H](O[C@]4(C(=O)O)C[C@H](O)[C@@H](NC(C)=O)[C@H]([C@H](O)[C@H](O)CO)O4)[C@H]3O)[C@H](O[C@@H]3O[C@@H](C)[C@@H](O)[C@@H](O)[C@@H]3O)[C@H]2O)cc1 [Compound 5B, O-(5-acetamido-3,5-dideoxy-D-glycero-α-D-galacto-2-nonulopyranosylonic acid)-(2→3)-O-β-D-galactopyranosyl-(1→4)-[O-α-L-fucopyranosyl-(1→3)-O-β-D-glucopyranosyl]-(1→1)-8-O-para-(2-tetradecylhexadecanoyl)aminobenzyl-3,6-dioxaoctane-1,8-diol]	6439	6993		
CCCCCCCCCCCCCCC(CCCCCCCCCCCCCC)C(=O)Nc1ccc(COCCOCCO[C@@H]2O[C@H](CO)[C@@H](O[C@@H]3O[C@H](CO)[C@H](O)[C@H](O[C@]4(C(=O)O)C[C@H](O)[C@@H](NC(C)=O)[C@H]([C@H](O)[C@H](O)CO)O4)[C@H]3O)[C@H](O[C@@H]3O[C@@H](C)[C@@H](O)[C@@H](O)[C@@H]3O)[C@H]2O)cc1 [Compound 5A, O-(5-acetamido-3,5-dideoxy-D-glycero-α-D-galacto-2-nonulopyranosylonic acid)-(2→3)-O-β-D-galactopyranosyl-(1→4)-[O-α-L-fucopyranosyl-(1→3)-O-β-D-glucopyranosyl]-(1→1)-5-O-para-(2-tetradecylhexadecanoyl)aminobenzyl-3-oxapentane-1,5-diol]	13287	6882	65.3	61.9
CCCCCCCCCCCCCCC(CCCCCCCCCCCCCC)C(=O)Nc1ccc(COCCOCCOCCOCCOCCO[C@@H]2O[C@H](CO)[C@@H](O[C@@H]3O[C@H](CO)[C@H](O)[C@H](O[C@]4(C(=O)O)C[C@H](O)[C@@H](NC(C)=O)[C@H]([C@H](O)[C@H](O)CO)O4)[C@H]3O)[C@H](O[C@@H]3O[C@@H](C)[C@@H](O)[C@@H](O)[C@@H]3O)[C@H]2O)cc1 [Compound 5D, O-(5-acetamido-3,5-dideoxy-D-glycero-α-D-galacto-2-nonulopyranosylonic acid)-(2→3)-O-β-D-galactopyranosyl-(1→4)-[O-α-L-fucopyranosyl-(1→3)-O-β-D-glucopyranosyl]-(1→1)-5-O-para-(2-tetradecylhexadecanoyl)aminobenzyl-3,6,9,12-tetraoxatetradecane-1,14-diol]	2782	8817		
CCCCCCCCCCCCCCC(CCCCCCCCCCCCCC)C(=O)Nc1ccc(COCCOCCOCCOCCO[C@@H]2O[C@H](CO)[C@@H](O[C@@H]3O[C@H](CO)[C@H](O)[C@H](O[C@]4(C(=O)O)C[C@H](O)[C@@H](NC(C)=O)[C@H]([C@H](O)[C@H](O)CO)O4)[C@H]3O)[C@H](O[C@@H]3O[C@@H](C)[C@@H](O)[C@@H](O)[C@@H]3O)[C@H]2O)cc1 [Compound 5C, O-(5-acetamido-3,5-dideoxy-D-glycero-α-D-galacto-2-nonulopyranosylonic acid)-(2→3)-O-β-D-galactopyranosyl-(1→4)-[O-α-L-fucopyranosyl-(1→3)-O-β-D-glucopyranosyl]-(1→1)-11-O-para-(2-tetradecylhexadecanoyl)aminobenzyl-3,6,9-trioxaundecane-1,11-diol]	6762	10513		
